# In patent US20240139185A1, “COMPOUNDS THAT PARTICIPATE IN COOPERATIVE BINDING AND USES THEREOF” (Revolution Medicines, Inc., priority 2018, published 2024):
# Read-outs that look alike come from different tables or passages of the source.
# Key:
# cyclophilin A (CYPA) = cyclophilin A (CYPA) (Homo sapiens, UniProt P62937); test: CYPA-compound binary complex formation by SPR; conditions: read-out: CYPA Binding Affinity
# Description: In order to determine the affinity of compounds of the invention for cyclophilin A (CYPA), we employed surface plasmon resonance binding analysis using the following reagents, instruments and protocol as supplied by the instrument manufacturer.
# Reagents and Instrument • 1. Instrument: Biacore S200 (GE Healthcare Life Sciences) • 2. Running buffer: 1×HBS-P+ (1×HBS supplemented with 0.05% Tween20), pH7.4, and 2% DMSO. • 3. Ligand: CypA-Avi • 4. Analyte: Serial dilution of WDB compounds from 50 μM to 0 μM, 2-fold dilution, 10 points (10 mM stock concentration). • 5. Sensor kit: Biotin CAPture Kit (BR28-9202-34, GE Healthcare Life Sciences) • 6. Regeneration buffer: 1 volume of 1 M NaOH and 3 volumes of 8 M guanidine hydrochloride (supplied with CAPture Kit, BR28-9202-34, GE Healthcare Life Sciences)
# Experimental Procedure • 1. Capture of CAPreagent: 2 μl/min for 60 seconds. • 2. Immobilization of ligand CypA: Use Fc1 as the reference cell; immobilize CypA at 4 μg/ml using 5 μl/min flowrate on Fc2 (60s), Fc3 (80s) and Fc4 (80s), respectively. • 3. Binding of analytes: Inject WDB compound dilutions sequentially at 50 μl/min for association of 60 seconds. And then let it dissociates in buffer at 50 μl/min for 60 seconds. • 4. Regeneration: 2 injections of regeneration buffer at 30 μl/min for 60 seconds to regenerate the chip surface. • 5. Solvent correction: Run solvent correction at beginning and the end of the run. If run more than 6 compounds, add additional solvent correction every 6 compounds. • 6. Data fitting with built-in Biacore Evaluation Software: Steady-state fitting.
# [1] = target: T1, BRAF-GTP-KRAS-G12C complex (Homo sapiens, UniProt P01116+P62937, G12C); test: KRAS-BRAF complex disruption through competition with CYPA-compound by TR-FRET; conditions: biochemical BRAF-KRAS G12C-GTP disruption assay EC50, with CYPA
# T1 construct: 50 nM of His6-KRas G12C-GTP (1-169); 500 nM of tagless CypA (1-165)
# Description: In this example, TR-FRET was used to measure the compound-facilitated disruption of a KRAS-BRAF complex. A mixture of tagless Cyclophilin A, His6-KRAS G12C-GMP-PNP, and GST-BRAF RAS binding domain was added to a 384-well assay plate containing compounds of the invention and incubated for 3 hours. A mixture of Anti-His Eu-W1024 and anti-GST allophycocyanin was then added and the reaction was incubated for an additional 1.5 hours. TR-FRET signal was read on an EnVision microplate reader (Perkin Elmer, Ex 320 nm, Em 665/615 nm). Compounds that facilitate disruption of a KRAS_BRAF complex were identified as those eliciting a decrease in the TR-FRET ratio relative to DMSO control wells. To determine the presenter-dependence of the compound-mediated KRAS-BRAF complex disruption, Cyclophilin A was left out of the initial incubation (see Table 5). To determine G12C specificity of the compound-mediated KRAS-BRAF complex disruption, wild-type KRAS was used instead of G12C KRAS (see Table 5).
# Reagents and Instrument • Tagless CYPA; 519 μM in PBS buffer, pH 7.4 • GST BRAF; 110 μM in PBS buffer, pH 7.4 • His6-KRASG12C-GMP-PNP; 50 μM in PBS buffer, pH 7.4 • His6-KRASWT-GMP-PNP; 40 μM in PBS buffer, pH 7.4 • Anti-His Eu-W1024 (LANCE® Eu-W1024; Perkin Elmer) • Anti-GST allophycocyanin (Anti-GST IgG conjugated to SureLight®-Allophycocyanin; Perkin Elmer; Product Number AD0059G) • Test compounds, 10 mM in 100% DMSO • EnVision (Perkin Elmer) • Combi MultiDrop liquid dispenser with 8-channel small volume cassette • 384-well ProxiPlate (black)
# Experimental Protocol • 1. Use Mosquito to dispense 100 nL/well of compounds (varying concentration in […]) into 384-well black ProxiPlate to make assay-ready-plate (ARP). • 2. Make assay buffer containing 25 mM Hepes pH 7.3, 100 mM NaCl, 5 mM MgCl2, 0.05% BSA, and 0.002% Tween-20. • 3. Make PRE-MIX A: delivers final concentrations of 50 nM of His6-KRas G12C-GTP (1-169) and 500 nM of tagless CypA (1-165) in assay buffer. • a. For presenter dependence experiments, omit addition of tagless CypA • b. For G12C/wt specificity experiments, substitute His6-KRas WT-GTP (1-169) for His6-KRas G12C-GTP (1-169) • 4. Use MultiDrop Combi to dispense PRE-MIX A into ARP, 7 μl/well. Incubate 3 hr at room temperature. • 5. Make PRE-MIX B: delivers final concentrations of 10 nM of anti-His Eu-W1024 and 50 nM of anti-GST APC. • 6. Use MultiDrop Combi to dispense PRE-MIX B into ARP, 3 μl/well. Shake briefly on Combi and incubate 1.5 hr at room temperature. • 7. Read on EnVision (Ex: 320 nm; Em1: 615 nm; Em2: 665 nm). • 8. Data is processed using Dotmatics. Curves are fit using a 4-parameter non-linear fit to determine the EC50 value for formation of the ternary complex.
# pERK in H358 cells = test: pERK inhibition in H358 cells; type: cell-based, human; conditions: read-out: Cellular pERK inhibition
# Description: H358 cells (5500 cells) derived from a human lung cancer were plated in a 96 well plate in media (100 uL, RPMI with 10% FBS). After 24 hours, cells were treated for 4 hours with compound or DMSO. Cells were washed twice with room temperature TBS (200 uL) and fixed for 20 minutes with 4% paraformaldehyde diluted with TBS (150 uL). Cells were washed four times for five minutes with 0.1% TritonX/TBS (150 uL) to permeabilize the membrane. Cells were incubated with TBS blocking buffer (100 uL) at room temperature for 60 minutes. Primary antibody (Phospho-p44/42 MAPK (Erk1/2) (Thr202/Tyr204) (D13.14.4E) XP® Rabbit mAb #4370, Cell Signaling Technology; 1:200) was added, and the cells were incubated overnight at 4 C. The cells were washed four times for five minutes with 0.1% Tween 20/TBS (150 uL). Secondary antibody (IRDye® 800CW Goat-Anti-Rabbit IgG, Li-Cor Biosciences; 1:1000) and DRAQ5™ (Invitrogen; 1:2000) was added, and the cells were incubated for 1 hour at room temperature. The cells were washed four times for five minutes with 0.1% Tween 20/TBS (150 uL) and scanned using the LICOR (700 and 800 nm).
Kd (cyclophilin A (CYPA)),EC50 [1],IC50 (pERK in H358 cells; 4 hours treatment),"IC50 (pERK in H358 cells; Homo sapiens, NCI-H358, 4 hours treatment)",SMILES
≤ 5 µM,≤ 0.5 µM,> 10 µM,–,CNC(=O)c1cc2ccc3cc2n1CC(C)COC(=O)C1CCCN(N1)C(=O)C(NC(=O)C(C(C)C)N(C)C(=O)C1CN(C(=O)CCl)C1)Cc1cc(O)cc-3c1 (stereo not drawn) [Compound 115]
≤ 5 µM,≤ 0.5 µM,1 to 10 µM,–,CC(C)[C@@H](C(=O)N[C@H]1Cc2cc(O)cc(c2)-c2ccc3c(C(F)F)nn(c3c2)C[C@H](C)COC(=O)[C@@H]2CCCN(N2)C1=O)N(C)C(=O)C1CN(C(=O)CCl)C1 [Compound 202]
5 to 15 µM,0.5 to 5 µM,> 10 µM,–,C=CC(=O)N1CCN([C@H](C(=O)N[C@H]2Cc3cc(O)cc(c3)-c3ccc4cnn(c4c3)CC(C)(C)COC(=O)[C@@H]3CCCN(N3)C2=O)C(C)C)C1=O [Compound 199]
5 to 15 µM,≤ 0.5 µM,–,> 10 µM,"C=CC(=O)N1CCN([C@H](C(=O)N[C@H]2Cc3cc(O)cc(c3)-c3ccc4nc(C)n(c4c3)CC(C)(C)COC(=O)[C@@H]3CCCN(N3)C2=O)C(C)C)C1=O [Compound 1, (2S)-2-(3-acryloyl-2-oxoimidazolidin-1-yl)-N-((6^3S,4S)-2^5-hydroxy-1^2,10,10-trimethyl-5,7-dioxo-6^1,6^2,6^3,6^4,6^5,6^6-hexahydro-1^1H-8-oxa-1(6,1)-benzo[d]imidazola-6(1,3)-pyridazina-2(1,3)-benzenacycloundecaphane-4-yl)-3-methylbutanamide]"
> 15 µM,≤ 0.5 µM,> 10 µM,–,CC[C@@H](C(=O)N[C@H]1Cc2cc(O)cc(c2)-c2ccc3c(C(C)(C)C#N)cn(c3c2)CC(C)(C)COC(=O)[C@@H]2CCCN(N2)C1=O)N(C)C(=O)C1CN(C(=O)CCl)C1 [Compound 56]
> 15 µM,≤ 0.5 µM,1 to 10 µM,–,C=CC(=O)N1CCC(C(=O)N(C)C(C(=O)NC2Cc3cc(O)cc(c3)-c3ccc4c(c3)N(CC(C)(C)COC(=O)C3CCCN(N3)C2=O)CC4(C=CC#N)COC)C(C)C)C1 (stereo not drawn) [Compound 404]
5 to 15 µM,0.5 to 5 µM,1 to 10 µM,–,C=CC(=O)N1CCC(C(=O)N(C)C(C(=O)NC2Cc3cc(O)cc(c3)-c3ccc4c(c3)c(cn4-c3cc(COC)ccc3C#N)CC(C)(C)COC(=O)C3CCCN(N3)C2=O)C(C)C)C1 (stereo not drawn) [Compound 393]
5 to 15 µM,≤ 0.5 µM,1 to 10 µM,–,CC(C)C1COC(=O)[C@@H]2CCCN(N2)C(=O)[C@@H](NC(=O)[C@H](C(C)C)N(C)C(=O)C2CN(C(=O)CCl)C2)Cc2cc(O)cc(c2)-c2ccc3c(C(C)(C)C#N)cn(c3c2)C1 (stereo partly drawn) [Compound 246]
≤ 5 µM,0.5 to 5 µM,> 10 µM,–,"CC1COC(=O)[C@@H]2CCCN(N2)C(=O)[C@@H](NC(=O)[C@H](C(C)C)N(C)C(=O)C2CN(C(=O)CCl)C2)Cc2cc(O)cc(c2)-c2ccc3c(c2)N(CCO3)C1 (single isomer, unassigned) [Compound 184]"
5 to 15 µM,0.5 to 5 µM,1 to 10 µM,–,C=CC(=O)N1CCC(C(=O)N(C)C(C(=O)NC2Cc3cc(O)cc(c3)-c3ccc4c(C(C)(C)C#N)cn(c4c3)CC(C)(C)COC(=O)C3CCCN(N3)C2=O)C(C)C)C1 (stereo not drawn) [Compound 89]
> 15 µM,≤ 0.5 µM,1 to 10 µM,–,CC(C)[C@@H](C(=O)N[C@H]1Cc2cc(O)cc(c2)-c2ccc3c(-c4ccccc4F)cn(c3c2)CC(C)(C)COC(=O)[C@@H]2CCCN(N2)C1=O)N(C)C(=O)C1CN(C(=O)CCl)C1 [Compound 242]
5 to 15 µM,≤ 0.5 µM,≤ 1 µM,–,CC(C)[C@@H](C(=O)N[C@H]1Cc2cc(O)cc(c2)-c2ccc3c(C4(C#N)CCC4)cn(c3c2)C[C@H](C)COC(=O)[C@@H]2CCCN(N2)C1=O)N(C)C(=O)C1CN(C(=O)CCl)C1 [Compound 81]
≤ 5 µM,0.5 to 5 µM,> 10 µM,–,CC(C)[C@@H](C(=O)N[C@H]1Cc2cc(O)cc(c2)-c2ccc3c(C#N)ccc(c3c2)OCCCOC(=O)[C@@H]2CCCN(N2)C1=O)N(C)C(=O)C1CN(C(=O)CCl)C1 [Compound 185]
> 15 µM,≤ 0.5 µM,≤ 1 µM,–,CC(C)[C@@H](C(=O)N[C@H]1Cc2cc(O)cc(c2)-c2ccc3c(Cl)cn(c3c2)CC(C)(C)COC(=O)[C@@H]2CCCN(N2)C1=O)N(C)C(=O)C1CN(C(=O)CCl)C1 [Compound 104]
> 15 µM,≤ 0.5 µM,1 to 10 µM,–,CCN(C(=O)C1CN(C(=O)CCl)C1)[C@H](C(=O)N[C@H]1Cc2cc(O)cc(c2)-c2ccc3c(C(C)(C)C#N)cn(c3c2)CC(C)(C)COC(=O)[C@@H]2CCCN(N2)C1=O)C(C)C [Compound 65]
≤ 5 µM,≤ 0.5 µM,> 10 µM,–,Cc1nc2ccc3cc2n1C[C@H](C)COC(=O)[C@@H]1CCCN(N1)C(=O)[C@@H](NC(=O)[C@H](C(C)C)N(C)C(=O)C1CN(C(=O)CCl)C1)Cc1cc(O)cc-3c1 [Compound 147]
> 15 µM,0.5 to 5 µM,> 10 µM,–,"CC(C)[C@@H](C(=O)N[C@H]1Cc2cc(O)cc(c2)-c2ccc3c(C(C)(C)C#N)cn(c3c2)CC(CO)COC(=O)[C@@H]2CCCN(N2)C1=O)N(C)C(=O)C1CN(C(=O)CCl)C1 (single isomer, unassigned) [Compound 21]"
≤ 5 µM,≤ 0.5 µM,1 to 10 µM,–,CC(C)[C@@H](C(=O)N[C@H]1Cc2cc(O)cc(c2)-c2ccc3c(Cc4ccccn4)cn(c3c2)C[C@H](C)COC(=O)[C@@H]2CCCN(N2)C1=O)N(C)C(=O)C1CN(C(=O)CCl)C1 [Compound 69]
